Data published in patent publication US12595275B2, “Fluorine-containing compound and anti-cancer medical use thereof” (ASCENTAWITS PHARMACEUTICALS, LTD., priority 2019, dated 2026).
Read-outs that look alike come from different tables or passages of the source.

Columns and labels:
H460 cancer cells = test: H460 proliferation assay in the presence of the specific AKR1C3 enzyme inhibitor TH-3021; format: cell-based, human; conditions: AKR1C3 inhibitor TH-3021 at 3 micromolar, added two hours before compound treatment, read-out: IC50 (nM) obtained when the AKR1C3 inhibitor TH-3021 was added
Method: (§1) Specifically, exponentially growing cells were seeded at a density of 4×10^3 cells per well in a 96 well plate and incubated at 37° C. in 5% CO2, 95% air and 100% relative humidity for 24 hours prior to addition of test compounds. Compounds were solubilized in 100% DMSO at 200 times the desired final test concentration. At the time of drug addition, compounds were further diluted to 4 times the desired final concentration with complete medium. Aliquots of 50 μl of compound at specified concentrations were added to microtiter wells already containing 150 μl of medium, resulting in the final drug concentration reported. After drug addition, the plates were incubated for an additional 2 hours at 37° C., 5% CO2, 95% air, and 100% relative humidity, then the drug was washed off and fresh medium was added and the plates were incubated for addition 70 hrs at 37° C., 5% CO2, 95% air and 100% relative humidity. At the end of this incubation, the viable cells were quantified using the AlamarBlue assay.
Similarly, in order to further verify that the compounds are activated by human AKR1C3 ([…] family 1 member C3), the effect of some of the compounds on the proliferation of H460 cancer cells was tested in the presence of a specific AKR1C3 enzyme inhibitor (at 3 micromolar concentration). The inhibitor-added compound solution was added to the cell culture two hours before the treatment with the compound. The inhibitor used was compound 36, i.e.,
[drawing 17] (TH-3021) in Flanagan et al., Bioorganic and Medicinal Chemistry (2014), pages 962-977.

[1] = system: H460 non-small cell lung cancer human tumor cell line; test: In vitro human tumor cell line cytotoxicity (proliferation) assay, H460; format: cell-based; conditions: NCI-H460, H460 cells, 2 hrs compound exposure, wash, additional 70 hrs incubation, AlamarBlue
Method: In vitro human tumor cell line cytotoxicity assays.
In vitro proliferation data on the H460 non-small cell lung cancer human tumor cell line is reported below in the compound table.
as §1

## O=[N+]([O-])c1ccc(C(OP(=O)(N2CC2)N2CC2)C(F)(F)F)cc1Oc1ccc(-c2ccc(F)cc2F)cc1 (stereo not shown) [Compound No. 15]
H460 cancer cells; Homo sapiens, NCI-H460, 2 h
  IC50: > 1000 nM
[1]
  IC50: 11.4 nM

## CN(C)C(=O)c1ccc(Oc2cc(COc3c(F)cc(COP(=O)(N4CC4)N4CC4)cc3F)ccc2[N+](=O)[O-])cc1 [Compound No. 1]
H460 cancer cells
  IC50: 460 nM
[1]
  IC50: 1.97 nM

## O=[N+]([O-])c1ccc(C(OP(=O)(N2CC2)N2CC2)C(F)(F)F)cc1Oc1ccc(C2CCCCC2)cc1 (stereo not shown) [Compound No. 48]
[1]
  IC50: 3.7 nM

## O=C(c1cccc(Oc2cc(C(OP(=O)(N3CC3)N3CC3)C(F)(F)F)ccc2[N+](=O)[O-])c1)N1CCC(F)(F)CC1 (stereo not shown) [Compound No. 22]
H460 cancer cells
  IC50: 139 nM
[1]
  IC50: 1.37 nM

## N#Cc1cccc(Oc2cc(COc3c(F)cc(COP(=O)(N4CC4)N4CC4)cc3F)ccc2[N+](=O)[O-])c1 [Compound No. 39]
H460 cancer cells
  IC50: 137 nM
[1]
  IC50: 7.79 nM

## O=[N+]([O-])c1ccc(C(OP(=O)(N2CC2)N2CC2)C(F)(F)F)cc1Oc1cccc(-c2ccc(F)cc2)c1 (stereo not shown) [Compound No. 14]
H460 cancer cells
  IC50: > 1000 nM
[1]
  IC50: 30 nM

## O=C(c1cccc(Oc2cc(C(OP(=O)(N3CC3)N3CC3)C(F)(F)F)ccc2[N+](=O)[O-])c1)N1CCC(O)CC1 (stereo not shown) [Compound No. 26]
H460 cancer cells
  IC50: 175 nM
[1]
  IC50: 1.2 nM

## Cc1nc2ccc(Oc3cc(C(OP(=O)(N4CC4)N4CC4)C(F)(F)F)ccc3[N+](=O)[O-])cc2s1 (stereo not shown) [Compound No. 42]
H460 cancer cells
  IC50: > 1000 nM
[1]
  IC50: 29.3 nM

## O=C(c1ccc(Oc2cc(C(OP(=O)(N3CC3)N3CC3)C(F)(F)F)ccc2[N+](=O)[O-])cc1)N1CCCCC1 (stereo not shown) [Compound No. 28]
H460 cancer cells
  IC50: 649 nM
[1]
  IC50: 2.36 nM

## O=C(c1cccc(Oc2cc(COc3c(F)cc(COP(=O)(N4CC4)N4CC4)cc3F)ccc2[N+](=O)[O-])c1)N1CC(F)(F)C1 [Compound No. 38]
H460 cancer cells
  IC50: 267 nM
[1]
  IC50: 5.53 nM

## O=C(c1cccc(Oc2cc(COc3c(F)cc(COP(=O)(N4CC4)N4CC4)cc3F)ccc2[N+](=O)[O-])c1)N1CC(F)C1 [Compound No. 36]
H460 cancer cells
  IC50: 238 nM
[1]
  IC50: < 4.37 nM

## O=[N+]([O-])c1ccc(COc2c(F)cc(COP(=O)(N3CC3)N3CC3)cc2F)cc1Oc1ccc(Cl)nc1 [Compound No. 5]
H460 cancer cells
  IC50: 228 nM
[1]
  IC50: 5.87 nM

## O=[N+]([O-])c1ccc(C(OP(=O)(N2CC2)N2CC2)C(F)(F)F)cc1Oc1ccc2ncccc2c1 (stereo not shown) [Compound No. 40]
H460 cancer cells
  IC50: > 1000 nM
[1]
  IC50: 14.7 nM

## O=[N+]([O-])c1ccc(C(OP(=O)(N2CC2)N2CC2)C(F)(F)F)cc1Oc1ccc(C2CCCC2)cc1 (stereo not shown) [Compound No. 47]
[1]
  IC50: 8.13 nM

## O=C(c1cccc(Oc2cc(C(OP(=O)(N3CC3)N3CC3)C(F)(F)F)ccc2[N+](=O)[O-])c1)N1CCCCC1 (stereo not shown) [Compound No. 21]
H460 cancer cells
  IC50: 176 nM
[1]
  IC50: 6.98 nM

## O=C(c1cccc(Oc2cc(C(OP(=O)(N3CC3)N3CC3)C(F)(F)F)ccc2[N+](=O)[O-])c1)N1CCCC1 (stereo not shown) [Compound No. 23]
H460 cancer cells
  IC50: 795 nM
[1]
  IC50: 6.04 nM

## O=[N+]([O-])c1ccc(C(OP(=O)(N2CC2)N2CC2)C(F)(F)F)cc1Oc1ccc(C2CCC(F)(F)CC2)cc1 (stereo not shown) [Compound No. 49]
H460 cancer cells
  IC50: > 1000 nM
[1]
  IC50: 9.61 nM

## O=[N+]([O-])c1ccc(C(OP(=O)(N2CC2)N2CC2)C(F)(F)F)cc1Oc1ccc(F)c(C(F)(F)F)c1 (stereo not shown) [Compound No. 12]
H460 cancer cells
  IC50: > 1000 nM
[1]
  IC50: 87.3 nM

## O=[N+]([O-])c1ccc(C(OP(=O)(N2CC2)N2CC2)C(F)(F)F)cc1Oc1ccc(-c2ccc(F)cc2)cc1 (stereo not shown) [Compound No. 9]
H460 cancer cells
  IC50: > 1000 nM
[1]
  IC50: 18.4 nM

## O=[N+]([O-])c1ccc(COc2c(F)c(F)c(COP(=O)(N3CC3)N3CC3)c(F)c2F)cc1Oc1ccc(C(F)(F)F)cc1 [Compound No. 8]
H460 cancer cells
  IC50: > 1000 nM
[1]
  IC50: 0.526 nM

## O=[N+]([O-])c1ccc(C(OP(=O)(N2CC2)N2CC2)C(F)(F)F)cc1Oc1ccc(-c2ccc(C(F)(F)F)cc2)nc1 (stereo not shown) [Compound No. 19]
H460 cancer cells
  IC50: > 1000 nM
[1]
  IC50: 313 nM

## O=[N+]([O-])c1ccc(C(OP(=O)(N2CC2)N2CC2)C(F)(F)F)cc1Oc1ccc(-c2ccc(F)cc2)nc1 (stereo not shown) [Compound No. 18]
H460 cancer cells
  IC50: > 1000 nM
[1]
  IC50: 35.5 nM

## O=[N+]([O-])c1ccc(C(OP(=O)(N2CC2)N2CC2)C(F)(F)F)cc1Oc1ccc(-c2ccc(F)cc2)c(F)c1 (stereo not shown) [Compound No. 16]
H460 cancer cells
  IC50: > 1000 nM
[1]
  IC50: 6.78 nM

## O=[N+]([O-])c1ccc(C(OP(=O)(N2CC2)N2CC2)C(F)(F)F)cc1Oc1ccc(-c2ccccc2)cc1 (stereo not shown) [Compound No. 44]
H460 cancer cells
  IC50: > 1000 nM
[1]
  IC50: 9.42 nM

## CN(C)C(=O)c1ccc(Oc2cc(C(OP(=O)(N3CC3)N3CC3)C(F)(F)F)ccc2[N+](=O)[O-])cc1 (stereo not shown) [Compound No. 27]
H460 cancer cells
  IC50: > 1000 nM
[1]
  IC50: 9.32 nM

## O=[N+]([O-])c1ccc(COc2c(F)cc(COP(=O)(N3CC3)N3CC3)cc2F)cc1Oc1ccc(C(F)(F)F)cc1 [Compound No. 4]
H460 cancer cells
  IC50: > 1000 nM
[1]
  IC50: 9.31 nM

## O=[N+]([O-])c1ccc(C(OP(=O)(N2CC2)N2CC2)C(F)(F)F)cc1Oc1ccc(-c2ccc(F)cn2)cc1 (stereo not shown) [Compound No. 20]
H460 cancer cells
  IC50: > 1000 nM
[1]
  IC50: 46.8 nM

## N#Cc1ccc(Oc2cc(COc3c(F)cc(COP(=O)(N4CC4)N4CC4)cc3F)ccc2[N+](=O)[O-])cc1 [Compound No. 37]
H460 cancer cells
  IC50: 136 nM
[1]
  IC50: 12.3 nM

## CN(C)C(=O)c1ccc(Oc2cc(COc3cc(F)c(COP(=O)(N4CC4)N4CC4)cc3Cl)ccc2[N+](=O)[O-])cc1 [Compound No. 34]
H460 cancer cells
  IC50: > 1000 nM
[1]
  IC50: 38.5 nM

## CN(C)C(=O)c1ccc(Oc2cc(COc3c(F)c(F)c(COP(=O)(N4CC4)N4CC4)c(F)c3F)ccc2[N+](=O)[O-])cc1 [Compound No. 2]
H460 cancer cells
  IC50: > 1000 nM
[1]
  IC50: 0.352 nM

## CN(C(=O)c1ccc(Oc2cc(C(OP(=O)(N3CC3)N3CC3)C(F)(F)F)ccc2[N+](=O)[O-])cc1)c1ccccc1 (stereo not shown) [Compound No. 41]
H460 cancer cells
  IC50: 341 nM
[1]
  IC50: 2.54 nM

## O=C(c1cccc(Oc2cc(C(OP(=O)(N3CC3)N3CC3)C(F)(F)F)ccc2[N+](=O)[O-])c1)N1CCC(C(F)(F)F)CC1 (stereo not shown) [Compound No. 25]
H460 cancer cells
  IC50: 179 nM
[1]
  IC50: 1.86 nM

## O=C(c1ccc(Oc2cc(C(OP(=O)(N3CC3)N3CC3)C(F)(F)F)ccc2[N+](=O)[O-])cc1)N1CCC(c2ccccc2)CC1 (stereo not shown) [Compound No. 30]
H460 cancer cells
  IC50: > 1000 nM
[1]
  IC50: 79.9 nM

## O=C(c1ccc(Oc2cc(C(OP(=O)(N3CC3)N3CC3)C(F)(F)F)ccc2[N+](=O)[O-])cc1)N1CCC(C(F)(F)F)CC1 (stereo not shown) [Compound No. 29]
H460 cancer cells
  IC50: > 1000 nM
[1]
  IC50: 60.1 nM

## CC1(C)CCN(C(=O)c2cccc(Oc3cc(C(OP(=O)(N4CC4)N4CC4)C(F)(F)F)ccc3[N+](=O)[O-])c2)CC1 (stereo not shown) [Compound No. 24]
H460 cancer cells
  IC50: > 1000 nM
[1]
  IC50: 4.33 nM

## O=[N+]([O-])c1ccc(C(OP(=O)(N2CC2)N2CC2)C(F)(F)F)cc1Oc1ccc(-c2ccc(F)cc2F)c(F)c1 (stereo not shown) [Compound No. 17]
H460 cancer cells
  IC50: > 1000 nM
[1]
  IC50: 7.26 nM

## O=[N+]([O-])c1ccc(C(OP(=O)(N2CC2)N2CC2)C(F)(F)F)cc1Oc1ccc(C(F)(F)F)cc1 (stereo not shown) [Compound No. 7]
H460 cancer cells
  IC50: > 1000 nM
[1]
  IC50: 25.6 nM

## CN(C)C(=O)c1cccc(Oc2cc(COc3c(F)c(F)c(COP(=O)(N4CC4)N4CC4)c(F)c3F)ccc2[N+](=O)[O-])c1 [Compound No. 3]
H460 cancer cells
  IC50: > 1000 nM
[1]
  IC50: 0.417 nM

## Cn1ncc2cc(Oc3cc(C(OP(=O)(N4CC4)N4CC4)C(F)(F)F)ccc3[N+](=O)[O-])ccc21 (stereo not shown) [Compound No. 43]
H460 cancer cells
  IC50: 102 nM
[1]
  IC50: 30.4 nM

## CN(C)C(=O)c1cccc(Oc2cc(C(OP(=O)(N3CC3)N3CC3)C(F)(F)F)ccc2[N+](=O)[O-])c1 (stereo not shown) [Compound No. 6]
H460 cancer cells
  IC50: 813 nM
[1]
  IC50: 1.27 nM

## O=[N+]([O-])c1ccc(C(OP(=O)(N2CC2)N2CC2)C(F)(F)F)cc1Oc1ccc(OC(F)(F)F)cc1 (stereo not shown) [Compound No. 11]
H460 cancer cells
  IC50: > 1000 nM
[1]
  IC50: 137 nM

## O=[N+]([O-])c1ccc(C(OP(=O)(N2CC2)N2CC2)C(F)(F)F)cc1Oc1cnc2ccccc2c1 (stereo not shown) [Compound No. 13]
H460 cancer cells
  IC50: > 1000 nM
[1]
  IC50: 42.2 nM
